Reference: patent publication US20240383850A1, “INDOLE DERIVATIVES AS SEROTONERGIC AGENTS USEFUL FOR THE TREATMENT OF DISORDERS RELATED THERETO” (Mindset Pharma Inc., priority 2021, published 2024)
Like-named read-outs stand apart in the source and are kept apart here.

Tests used:
human 5-HT2A receptor [1] = biological target: T1, human 5-HT2A receptor (Homo sapiens, UniProt P28223); test: biochemical
[2] = biological target: human 5-HT2A (h5-HT2A) receptor (Homo sapiens, UniProt P28223); test: FLIPR calcium assay, human 5-HT2A, agonist mode
C57BL/6J mice [3] = test: Mouse head twitch response (HTR); type: in vivo; details: for duration of HT expression: at 10-30 mg/kg
Protocol: (§1) The effect of different doses of representative compounds of Formula I was evaluated on head-twitch response (HTR) and other behavioural responses indicative of serotonin syndrome as behavior-based models of psychedelic activity.
(§2) Male, C57BL/6J mice (body weight range 20-30 g) were dosed with the appropriate dose of test article, and following a 1-minute pre-treatment time, placed in individual observation chambers. Animals were visually assessed for the incidence head twitches continuously over a 1 hr period. Head twitches were defined as a rapid jerk of the head which was not elicited by an external tactile stimulus (Come and Pickering, Psychopharmacologia, 1967, 11(1): 65-78). Each head twitch was individually counted by a trained observer, and the data expressed as the mean±SEM of 6-10 mice per group. Mice were used in a single experiment only.

C57BL/6J mice [4] = test: Behavioural responses indicative of serotonin syndrome and motor activity, observed in the mouse head twitch study; type: in vivo
Protocol: as §1, §2

human 5-HT2A receptor [5] = biological target: T1, human 5-HT2A receptor; details: read-out: h5-HT2A IC50; competition with [3H]-ketanserin, cell membranes

T1 sequence (P28223 whole entry): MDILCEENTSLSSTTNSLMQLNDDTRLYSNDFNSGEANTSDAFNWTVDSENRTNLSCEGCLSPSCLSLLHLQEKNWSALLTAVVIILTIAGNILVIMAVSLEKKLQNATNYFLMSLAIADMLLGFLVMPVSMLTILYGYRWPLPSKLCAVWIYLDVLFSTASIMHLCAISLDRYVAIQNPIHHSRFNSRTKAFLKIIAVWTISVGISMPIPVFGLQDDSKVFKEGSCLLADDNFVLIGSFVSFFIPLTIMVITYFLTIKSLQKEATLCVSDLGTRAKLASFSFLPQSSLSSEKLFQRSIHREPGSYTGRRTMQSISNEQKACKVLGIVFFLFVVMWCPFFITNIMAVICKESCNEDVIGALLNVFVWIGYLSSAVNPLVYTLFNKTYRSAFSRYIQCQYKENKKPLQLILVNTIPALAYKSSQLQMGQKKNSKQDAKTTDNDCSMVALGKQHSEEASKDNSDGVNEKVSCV
human 5-HT2A (h5-HT2A) receptor, sequence (P28223 whole entry): as above

| SMILES | IC50 (human 5-HT2A receptor [1]) | EC50 [2] | also measured |
| --- | --- | --- | --- |
| CCCCC/C=C\C/C=C\CCCCCCCC(=O)N1CCC(c2c[nH]c3ccccc23)CC1 [Compound I-87, (9Z,12Z)-1-(4-(1H-Indol-3-yl)piperidin-1-yl)octadeca-9,12-dien-1-one] | 10 to 30 µM | > 30 µM |  |
| CCCCC/C=C\C/C=C\CCCCCCCC(=O)N1CCC(c2c[nH]c3ccc(OC)cc23)C1 (stereo not shown) [Compound I-81, (9Z,12Z)-1-(3-(5-Methoxy-1H-indol-3-yl)pyrrolidin-1-yl)octadeca-9,12-dien-1-one] | > 30 µM | > 30 µM |  |
| COc1ccc2[nH]cc(CCN(C)C)c2c1 [Compound 5-MeO-DMT, 5-MeO-DMT, reference compound] |  |  | ED50 head twitch response (C57BL/6J mice [3]; male C57BL/6J mice, SC, head twitches counted over 1 hr): 8 mg/kg; duration of HT expression (C57BL/6J mice [3]; mice, SC): 0 to 20 min |
| CCCCC/C=C\C/C=C\CCCCCCCC(=O)N(C)CCc1c[nH]c2ccccc12 [Compound I-1, (9Z,12Z)—N-(2-(1H-Indol-3-yl)ethyl)-N-methyloctadeca-9,12-dienamide] | 10 to 30 µM | > 30 µM |  |
| CCCCC/C=C\C/C=C\CCCCCCCC(=O)N(C)CCc1c[nH]c2ccc(OC)cc12 [Compound I-21, (9Z,12Z)—N-(2-(5-Methoxy-1H-indol-3-yl)ethyl)-N-methyloctadeca-9,12-dienamide] | 10 to 30 µM | > 30 µM |  |
| CCCCC/C=C\C/C=C\CCCCCCCC(=O)N1CCC(c2c[nH]c3ccc(OC)cc23)CC1 [Compound I-88, (9Z,12Z)-1-(4-(5-Methoxy-1H-indol-3-yl)piperidin-1-yl)octadeca-9,12-dien-1-one] | 10 to 30 µM | > 30 µM |  |
| CCCCC/C=C\C/C=C\CCCCCCCC(=O)N1CCC(c2c[nH]c3ccccc23)C1 (stereo not shown) [Compound I-84, (9Z,12Z)-1-(3-(1H-Indol-3-yl)pyrrolidin-1-yl)octadeca-9,12-dien-1-one] | 10 to 30 µM | > 30 µM |  |
| [2H]C([2H])(c1c[nH]c2ccc(OC)cc12)[C@H]1CCCN1C(=O)CCCCCCC/C=C\C/C=C\CCCCC [(R)—I-51] |  |  | ED50 (C57BL/6J mice [3]; Mus musculus, male C57BL/6J mice, SC, head twitches counted over 1 hr): 2.8 mg/kg; head twitch response expression (C57BL/6J mice [3]; mice, 1-60 mg/kg SC, compared to 5-MeO DMT): elicited a robust head twitch response expression; duration of HT expression (C57BL/6J mice [3]; mice, SC): 0 to 30 min; motor activity (C57BL/6J mice [4]; 1-30 mg/kg, not formally measured): did not reduce motor activity; signs of 5-HT syndrome (whole body twitches, FPT, Straub tail) (C57BL/6J mice [4]; up to 60 mg/kg SC): did not induce signs of 5-HT syndrome |
| CCCCC/C=C\C/C=C\CCCCCCCC(=O)N1CCC[C@@H]1Cc1c[nH]c2ccccc12 [Compound I-46, (9Z,12Z)-1-((R)-2-((1H-Indol-3-yl)methyl)pyrrolidin-1-yl)octadeca-9,12-dien-1-one] | > 30 µM | > 30 µM |  |
| CN(C)CCc1c[nH]c2ccccc12 [DMT] |  |  | IC50 (human 5-HT2A receptor [5]): < 10 µM; EC50 ([2]; read-out: h5-HT2A EC50, FLIPR calcium assay, agonist mode): < 10 µM |
| CCCCC/C=C\C/C=C\CCCCCCCC(=O)N1CCC[C@@H]1Cc1c[nH]c2ccc(OC)cc12 [Compound I-55, (9Z,12Z)-1-((R)-2-((5-Methoxy-1H-indol-3-yl)methyl)pyrrolidin-1-yl)octadeca-9,12-dien-1-one] | > 30 µM | > 30 µM |  |
